Laboratory results published in PMC7822874, “Chemoprotective antimalarials identified through quantitative high-throughput screening of Plasmodium blood and liver stage parasites” (Scientific Reports, 2021).
Where two headings read alike, the source gives them in different places.

Experiments:
[1] = tested on: Plasmodium falciparum Dd2 asexual blood stage parasites; assay: microbe, parasite or virus in culture; parameters: species or system Plasmodium falciparum Dd2 in human erythrocytes; single determination (one 11-point concentration-response curve); details: Plasmodium falciparum, DD2, Erythrocyte, 72 h; read-out: AC50
in vitro = details: human, HepG2-A16-CD81EGFP cells, uninfected
[2] = tested on: P. berghei-ANKA-GFP-LucCON liver stage parasites in HepG2-A16-CD81EGFP cells; assay: P. berghei liver stage Pb-Luc assay, Method 1 (UCSD, 1536-well); assay type: cell-based, Plasmodium berghei; details: for activity at 1 µM / activity at 3 µM / AC50: Plasmodium berghei; for activity at 1 µM / activity at 3 µM: 48 h, average of 2 wells on a 1536 well plate; for activity at 1 µM: 1 uM (compounds provided at 10 mM); for activity at 3 µM: 3 uM (compounds provided at 10 mM); for Max Resp (signal direction of the dose response) / AC50: Method 1; for Max Resp (signal direction of the dose response): Decrease = decreasing P. berghei viability with dose, Increase = increasing signal, Inactive = no dose response
[3] = column 11, read-out: Pb-Luc (P. berghei liver stage), % of control, lower concentration, first repeat
[4] = column 12, read-out: Pb-Luc (P. berghei liver stage), % of control, lower concentration, second repeat
[5] = column 8, read-out: Pb-Luc (P. berghei liver stage), % of control, higher concentration, first repeat
[6] = column 9, read-out: Pb-Luc (P. berghei liver stage), % of control, higher concentration, second repeat

| SMILES | AC50 [1] | viability at 48 h, 1 µM (in vitro) | viability at 48 h, 3 µM (in vitro) | activity at 1 µM [2, 3] | activity at 1 µM [2, 4] | activity at 3 µM [2, 5] | activity at 3 µM [2, 6] | viability at 48 h (in vitro) | Max Resp (signal direction of the dose response) [2] | AC50 ([2]; Hill fit, 50% of maximum activity response, read-out: AC50) | AC50 ([2]; log10 of molar AC50 from Hill fit, read-out: Log AC50 (converted)) |
| --- | --- | --- | --- | --- | --- | --- | --- | --- | --- | --- | --- |
| CCOc1ccc(NC(=O)CN2C(=O)NC(C)(c3ccc(OC(F)F)cc3)C2=O)cc1 (centres unmarked) [MLS001193353-01] | 9440 nM | 109% | 103% | 120% | 108% | 48% | 87% |  |  |  |  |
| CC1CCCN(Cc2c(O)ccc3c(=O)c(-c4ccc(Cl)cc4)coc23)C1 (centres unmarked) [MLS001196099-01] | 1880 nM | 113% | 99% | 102% | 123% | 105% | 96% |  |  |  |  |
| Cn1c(S)nc2sc3c(c2c1=O)CCC(C(C)(C)C)C3 (centres unmarked) [MLS001198408-01] | 5310 nM | 97% | 107% | 80% | 94% | 69% | 61% |  |  |  |  |
| COc1cc2nc(Nc3ccc(C)c(Cl)c3)nc(N)c2cc1OC [MLS001199666-01] | 2110 nM | 109% | 100% | 99% | 121% | 97% | 111% |  |  |  |  |
| CCn1cc(C(=O)N[C@@H](CCSC)C(=O)NC(C)(C)CO)c(=O)c2cc3c(cc21)OCO3 [MLS001201727-01] | 2990 nM | 103% |  |  |  |  |  | 103% | Inactive |  |  |
| C=C(C)COc1ccc(-c2ncnc(C(F)(F)F)c2-c2ccc(OC)cc2)c(O)c1 [MLS001216205-01] | 2990 nM | 89% | 104% | 120% | 94% | 111% | 99% |  |  |  |  |
| Cc1ccc(/C=N/NC(=O)c2cc3ccccc3cc2O)o1 [MLS001219838-01] | 5310 nM | 97.9% |  |  |  |  |  | 97.9% | Decrease | 1410 nM | 1410 nM |
| COc1ccc(S(=O)(=O)N2CCC3(CC2)OCCN3S(=O)(=O)c2c(C)cc(C)cc2C)cc1 [MLS001237293-01] | 2660 nM | 108% | 103% | 88% | 81% | 87% | 75% |  |  |  |  |
| CCCSc1ccc([C@H]2N[C@@](Cc3ccccc3)(C(=O)OC)[C@H]3C(=O)N(CC)C(=O)[C@@H]23)cc1 [MLS001362807-01] | 5310 nM | 109% | 103% | 115% | 102% | 124% | 103% |  |  |  |  |
| CC(C)(C)OC(=O)N1CCC(CC2CC(c3ccccc3)=NO2)(C(=O)NCc2ccccc2)CC1 (centres unmarked) [MLS002174287-01] | 2660 nM | 111% | 95% | 140% | 108% | 65% | 115% |  |  |  |  |
| COc1ccc(NC(=O)CN(C)C(=O)c2oc3c(ccc4ccccc43)c2C)cc1 [MLS002182882-01] | 531 nM | 110% | 104% | 160% | 170% | 88% | 114% |  |  |  |  |
| COc1cc(C#Cc2c(-c3cncn3C)n(C)c3ccc(-c4ccc5[nH]ccc5c4)cc23)cc(OC)c1 [MLS002391601-01] | 2370 nM | 105% | 102% | 112% | 94% | 111% | 101% |  |  |  |  |
